Where no end group is shown, it is not given here.
Tests used:
[1] = test system: normal human keratinocytes; assay: Synthesis of 46-47 KD keratin by human keratinocytes in primary culture; type: cell-based; settings: compared with a control
Description: (§1) Culture of normal human keratinocytes
(§2) The epidermis is then dissociated under gentle mechanical action, or enzymically, in order to obtain the individual cells. Only the basal cells are capable of multiplying in vitro.
(§3) The culture is carried out at 37° C. in a controlled moist atmosphere ([…] --5% CO2).
(§4) In monolayer culture, the calcium concentration is between 0.05 and 0.1 mM. […] The synthesis of the keratinocytes is maintained. The intercellular spaces are wide: cell connections are maintained by microvillosities and not by tight junctions. While the tonofilaments of the perinuclear space can be seen, they are still not attached to the anchoring plaques.
(§5) Stratification can be induced by increasing the final calcium concentration in the culture medium to 1.2 mM. The formation of desmosomes then appears after 2 hours.
(§6) I ETF derivative No. IX, which has been lyophilized
in Dextran (40 g/l) and which is at a concen-
tration of 10^-6 M in the final culture medium.
II Crist. SIGMA thymopoietin - at a concentration of
10^-6 M in the final culture medium.
(§7) Human keratinocytes are cultured as described by Henning et al. (1983) or Fuchs et al. (1981). Air/liquid cultures are also carried out using the following methodology.
The cell markers which are selected are the low-molecular-weight 46/47 KD keratins, which are specific for the growth and cell differentiation of the germinative cells.
(§8) Indirect fluorescent labeling by the sandwich technique--48 hours after adding calcium to the culture medium (stratification).
rat antihuman 46-47 KD keratin antibody
FITC-labeled mouse antirat Ig G2 antibody.
(§9) Use of immunofluorescence, with graphic recording, for measuring cell markers.
(§10) Spectrofluorometric assays
(§11) "Perkin Elmer LS-50 B spectrofluorimeter".
(§12) on cell homogenate supernatants.
(§13) LOWRY technique using a Perkin Elmer UV spectrophotometer (cell homogenate supernatants).
(§14) The fluorescence intensity of the cells treated with ETF No. IX is assessed in comparison with the fluorescence intensity of the controls.

[2] = test system: normal human keratinocytes; assay: Synthesis of keratohyalin (filaggrin) by human keratinocytes in primary culture; type: cell-based; settings: for Stimulation % (keratohyalin synthesis): compared with a control; for Keratin/protein mean (keratohyalin synthesis, Table III): proteins expressed in micrograms/ml
Description: as §1, §2, §3, §4, §5, §6
in Dextran (40 g/l) and which is at a concen- […]
II Crist. SIGMA thymopoietin - at a concentration of […]
as §7
The filaggrins are markers of keratohyalin.
as §8
human antikeratohyalin (filaggrin) antibody
FITC-labeled goat antihuman Ig G antibody.
as §9, §10, §11, §12, §13, §14

[3] = test system: Thy 1.2+ thymocytes of the epidermis; assay: Thy 1.2+ epidermal cell density after topical application to mouse ear (immunofluorescence); type: in vivo, C57-BL/6 mice; settings: for Number of Thy 1.2+ cells per mm^2 of epidermis, batch 1 / Number of Thy 1.2+ cells per mm^2 of epidermis, batch 2 / Number of Thy 1.2+ cells per mm^2 of epidermis, batch 3 / Number of Thy 1.2+ cells per mm^2 of epidermis, batch 4 / Number of Thy 1.2+ cells per mm^2 of epidermis, Mean: C 57 BL/6 mice; for Number of Thy 1.2+ cells per mm^2 of epidermis, Mean: 4 batches; for Thy 1.2+ cells % T: relative to PG controls
Description: (§15) I--Experimental Samples--Code: ETF
(§16) In solution in propylene glycol at a concentration of 10^-5 M/ml
(§17) 5 to 7-week-old male C 57-BL/6 mice, which are divided into groups of 4 per cage, and which have free access to water and food and which are subjected to a photoperiod of 12 h of light per 24 hours, are given a topical application of the peptide in propylene glycol (50 μl vol) on the dorsal surface of the ear daily for 5 consecutive days.
(§18) The animals are sacrificed on day 6. The ears are removed, with the dorsal and ventral surfaces being separated.
(§19) The tissues of the dorsal surface are immersed in Na EDTA (0.020 M) at 37° C. for 2 h.
(§20) After incubation, the epidermis is removed in the form of an intact sheet, fixed with acetone and rehydrated in PBS (phosphate buffer).
(§21) The Thy 1-2+ and Ia+ EDC (epidermal dendritic cells) are identified by indirect immunofluorescence double labeling.
(§22) In the case of each epidermal sheet, the number of cells per mm^2 is determined using the peripheral regions of the same surface.
The Thy 1.2+ EDC were identified by indirect immunofluorescence double labeling. The epidermal sheets were fixed with acetone and then rehydrated in PBS.
The tissues were labeled simultaneously, at 4° C. for 16 h, with mouse anti-Thy 1.2+ antibody which was diluted 1:100. The tissue samples were washed three times in PBS for 60 min and then incubated, at 37° C. for 60 min, either with goat antimouse antibody which was coupled to rhodamine and diluted 1:20, or with goat antirabbit antibody which was coupled to fluorescein (fluorescine and diluted 1:20 in PBS. The tissues were then washed in PBS before being mounted as previously described.
(§23) In the case of each epidermal sheet, the number of Ia+ Langerhans cells or Thy 1.2+ EDCs per square millimeter was determined by means of immunofluorescence, using a confocal Zeiss microscope which was equipped for this purpose, in four peripheral areas of the same surface. At least four animals were studied in each of the groups. The density of Ia+ Langerhans cells and Thy 1.2+ EDCs is shown for each measurement.

Ia+ Langerhans cells = assay: Ia+ Langerhans cell density after topical application to mouse ear; type: in vivo, C57-BL/6 mice; settings: for Number of Ia+ cells per mm^2 of epidermis, batch 1 / Number of Ia+ cells per mm^2 of epidermis, batch 2 / Number of Ia+ cells per mm^2 of epidermis, batch 3 / Number of Ia+ cells per mm^2 of epidermis, batch 4 / Number of Ia+ cells per mm^2 of epidermis, Mean: C 57 BL/6 mice; for Number of Ia+ cells per mm^2 of epidermis, Mean: 4 batches; for Ia+ cells %: relative to PG controls
Description: as §15, §16, §17, §18, §19, §20, §21, §22
The EDC (epidermal dendritic cells) carrying the Ia+ marker were identified using an anti-Ia+ monoclonal antibody.
The epidermal sheets are fixed with acetone and then incubated, at 37° C. for 1 h, in the presence of the anti-Ia+ monoclonal antibody, which has been labeled by the indirect immunoperoxidase method (Kit).
After having been incubated at 37° C. for 10 minutes with a solution of aminoethylcarbazole, the preparation is washed with PBS.
as §23

Which “Stimulation % (46-47 KD keratin synthesis)” value ([1]; Concentration 10^-6 M) does the source give for “A-Gln-Gly-Gly-Ser-Asn-NH2 (QGGSN; not fully specified (N-terminus, C-terminus)) [ETF No. IX, A not specified; lyophilized in Dextran for the test]” here?
The value was 90%.

What about the “Stimulation % (46-47 KD keratin synthesis)” value ([1]; Concentration 10^-8 M) of the same substance?
Its value is 95%.

And the “Stimulation % (46-47 KD keratin synthesis)” value ([1]; Concentration 10^-10 M)?
The value was 86%.

And the “Stimulation % (46-47 KD keratin synthesis)” value ([1]; Concentration 10^-12 M)?
The value was 41%.

What about the “Stimulation % (keratohyalin synthesis)” value ([2]; Concentration 10^-6 M) of the same substance?
Its value is 62%.

What about the “Keratin/protein mean (keratohyalin synthesis, Table III)” value (“Keratin/protein mean” below) ([2]; Concentration 10^-6 M) of the same substance?
The value was 5.97.

What about the “Stimulation % (keratohyalin synthesis)” value ([2]; Concentration 10^-8 M) of the same substance?
Its value is 83%.

And the “Keratin/protein mean” value ([2]; Concentration 10^-8 M)?
The value was 6.75.

What about the “Stimulation % (keratohyalin synthesis)” value ([2]; Concentration 10^-10 M) of the same substance?
Its value is 39%.

What about the “Keratin/protein mean” value ([2]; Concentration 10^-10 M) of the same substance?
Its value is 5.13.

And the “Stimulation % (keratohyalin synthesis)” value ([2]; Concentration 10^-12 M)?
Its value is 38%.

And the “Keratin/protein mean” value ([2]; Concentration 10^-12 M)?
The value was 5.11.

With thymopoietin [reference compound] as the substance, how does the “Stimulation % (46-47 KD keratin synthesis)” value ([1]; Concentration 10^-6 M) read?
The value was 19%.

What about the “Stimulation % (keratohyalin synthesis)” value ([2]; Concentration 10^-6 M) of the same substance?
The value was 35%.

What about the “Keratin/protein mean” value ([2]; Concentration 10^-6 M) of the same substance?
The value was 4.99.

For “A-Arg-Lys-Asp-Val-Tyr-NH2 (RKDVY; not fully specified (N-terminus, C-terminus)) [ETF-XV, A not specified for the tested sample; b149 names acetic acid-Arg-Lys-Asp-Val-Tyr-NH2]”, which “Number of Thy 1.2+ cells per mm^2 of epidermis, batch 1” value ([3]; dose 0.10 Nanog.) is on record?
Its value is 160 cells per mm^2.

What about the “Number of Thy 1.2+ cells per mm^2 of epidermis, batch 2” value ([3]; dose 0.10 Nanog.) of the same substance?
Its value is 158 cells per mm^2.

What about the “Number of Thy 1.2+ cells per mm^2 of epidermis, batch 3” value ([3]; dose 0.10 Nanog.) of the same substance?
The value was 160 cells per mm^2.

What about the “Number of Thy 1.2+ cells per mm^2 of epidermis, batch 4” value ([3]; dose 0.10 Nanog.) of the same substance?
The value was 170 cells per mm^2.

What about the “Number of Thy 1.2+ cells per mm^2 of epidermis, Mean” value ([3]; dose 0.10 Nanog.) of the same substance?
The value was 162.00 cells per mm^2.

And the “Thy 1.2+ cells % T” value ([3]; dose 0.10 Nanog.)?
The value was 84%.

What about the “Number of Thy 1.2+ cells per mm^2 of epidermis, batch 1” value ([3]; dose 0.50 Nanog.) of the same substance?
Its value is 176 cells per mm^2.

And the “Number of Thy 1.2+ cells per mm^2 of epidermis, batch 2” value ([3]; dose 0.50 Nanog.)?
Its value is 168 cells per mm^2.

What about the “Number of Thy 1.2+ cells per mm^2 of epidermis, batch 3” value ([3]; dose 0.50 Nanog.) of the same substance?
Its value is 170 cells per mm^2.

And the “Number of Thy 1.2+ cells per mm^2 of epidermis, batch 4” value ([3]; dose 0.50 Nanog.)?
The value was 186 cells per mm^2.

And the “Number of Thy 1.2+ cells per mm^2 of epidermis, Mean” value ([3]; dose 0.50 Nanog.)?
The value was 175.00 cells per mm^2.

And the “Thy 1.2+ cells % T” value ([3]; dose 0.50 Nanog.)?
Its value is 98%.

And the “Number of Thy 1.2+ cells per mm^2 of epidermis, batch 1” value ([3]; dose 1.00 Nanog.)?
Its value is 198 cells per mm^2.

And the “Number of Thy 1.2+ cells per mm^2 of epidermis, batch 2” value ([3]; dose 1.00 Nanog.)?
Its value is 180 cells per mm^2.

And the “Number of Thy 1.2+ cells per mm^2 of epidermis, batch 3” value ([3]; dose 1.00 Nanog.)?
Its value is 188 cells per mm^2.

And the “Number of Thy 1.2+ cells per mm^2 of epidermis, batch 4” value ([3]; dose 1.00 Nanog.)?
The value was 199 cells per mm^2.

What about the “Number of Thy 1.2+ cells per mm^2 of epidermis, Mean” value ([3]; dose 1.00 Nanog.) of the same substance?
Its value is 191.25 cells per mm^2.

What about the “Thy 1.2+ cells % T” value ([3]; dose 1.00 Nanog.) of the same substance?
Its value is 117%.

And the “Number of Ia+ cells per mm^2 of epidermis, batch 1” value (Ia+ Langerhans cells; dose 0.10 Nanog.)?
Its value is 315 cells per mm^2.

And the “Number of Ia+ cells per mm^2 of epidermis, batch 2” value (Ia+ Langerhans cells; dose 0.10 Nanog.)?
Its value is 326 cells per mm^2.

What about the “Number of Ia+ cells per mm^2 of epidermis, batch 3” value (Ia+ Langerhans cells; dose 0.10 Nanog.) of the same substance?
Its value is 320 cells per mm^2.

What about the “Number of Ia+ cells per mm^2 of epidermis, batch 4” value (Ia+ Langerhans cells; dose 0.10 Nanog.) of the same substance?
The value was 330 cells per mm^2.

What about the “Number of Ia+ cells per mm^2 of epidermis, Mean” value (Ia+ Langerhans cells; dose 0.10 Nanog.) of the same substance?
Its value is 322.75 cells per mm^2.

And the “Ia+ cells %” value (Ia+ Langerhans cells; dose 0.10 Nanog.)?
Its value is 215%.

And the “Number of Ia+ cells per mm^2 of epidermis, batch 1” value (Ia+ Langerhans cells; dose 0.50 Nanog.)?
The value was 305 cells per mm^2.

And the “Number of Ia+ cells per mm^2 of epidermis, batch 2” value (Ia+ Langerhans cells; dose 0.50 Nanog.)?
Its value is 345 cells per mm^2.

And the “Number of Ia+ cells per mm^2 of epidermis, batch 3” value (Ia+ Langerhans cells; dose 0.50 Nanog.)?
The value was 330 cells per mm^2.

And the “Number of Ia+ cells per mm^2 of epidermis, batch 4” value (Ia+ Langerhans cells; dose 0.50 Nanog.)?
The value was 345 cells per mm^2.

What about the “Number of Ia+ cells per mm^2 of epidermis, Mean” value (Ia+ Langerhans cells; dose 0.50 Nanog.) of the same substance?
Its value is 331.25 cells per mm^2.

What about the “Ia+ cells %” value (Ia+ Langerhans cells; dose 0.50 Nanog.) of the same substance?
The value was 223%.

What about the “Number of Ia+ cells per mm^2 of epidermis, batch 1” value (Ia+ Langerhans cells; dose 1.00 Nanog.) of the same substance?
Its value is 348 cells per mm^2.

What about the “Number of Ia+ cells per mm^2 of epidermis, batch 2” value (Ia+ Langerhans cells; dose 1.00 Nanog.) of the same substance?
The value was 360 cells per mm^2.

What about the “Number of Ia+ cells per mm^2 of epidermis, batch 3” value (Ia+ Langerhans cells; dose 1.00 Nanog.) of the same substance?
Its value is 348 cells per mm^2.

And the “Number of Ia+ cells per mm^2 of epidermis, batch 4” value (Ia+ Langerhans cells; dose 1.00 Nanog.)?
The value was 350 cells per mm^2.

What about the “Number of Ia+ cells per mm^2 of epidermis, Mean” value (Ia+ Langerhans cells; dose 1.00 Nanog.) of the same substance?
The value was 351.50 cells per mm^2.

And the “Ia+ cells %” value (Ia+ Langerhans cells; dose 1.00 Nanog.)?
The value was 243%.

From patent publication US6211155A, “Peptide conjugates derived from thymic hormones, their use as a medicament and compositions containing them” (Institut European de Biologie Cellulaire, priority 1995, dated 2001)
